Results published in patent US7964701B2, “Alpha-fetoprotein peptides” (Albany Medical College, priority 2006, dated 2011).
Where a SMILES comes first, the peptide text is derived from it. Where no end group is shown, it is not given here. [ ]: non-standard residue; d: D form. Hyp = O=C(O)[C@@H]1C[C@@H](O)CN1

Experiments:
[1] = tested on: E2-stimulated growth of mouse uterus; test: Immature mouse uterine growth assay; type: in vivo; conditions: for Inhibition ± S.E, % Immature mouse uterine growth Intraperitoneal / antiestrogenic activity (inhibition of E2-stimulated uterine growth), in words: 1 μg/mouse intraperitoneally; for Activity % ± SD (percent growth inhibition of uterus): dose 1 ug/animal; for dose-response profile, inhibition of E2-stimulated uterine growth: FIG. 5; for antiestrogenic activity (inhibition of E2-stimulated uterine growth), in words: Table 3 discussion
Description: The anti-breast cancer activity of the linear and cyclic 8-mer and 9-mer AFP-derived peptides is well-documented using the immature mouse uterine growth assay and the human breast cancer xenograft assay; there is a strong correlation between the results of these two assays. To evaluate peptide-induced inhibition by the peptide of the present invention of estrogen-stimulated proliferation of normal tissue, the immature mouse uterine growth assay was utilized. Briefly, 13-15 day-old Swiss/Webster female mice, 6-8 g in body weight, were distributed into treatment groups of 5 mice per group so that each group contained animals of the same range of body weight. The peptide of the invention was injected i.p., s.c., or p.o. into the mice. One hour later, estradiol (E2) or vehicle control for E2 was injected i.p. Twenty-two hours after the second injection, uteri were harvested, trimmed free of mesenteries, and immediately weighed. The uterine weights were normalized to mouse body weights to compensate for differences in body weight among litters of the same age. Experiments employed a minimum of five mice per group and the mean normalized uterine weight±SE for each group was calculated. Percent growth inhibition in a test group was calculated from normalized uterine wet weights as described below.
Differences between groups were evaluated, employing the nonparametric Wicoxon ranks sum test. In all cases, growth inhibitions that were greater than 25% were significant at P≦0.05.
In other experiments, peptide analogs comprising the sequences TOVN SEQ ID NO.: 3) and TPVN (SEQ ID NO.: 2) were assessed for their ability to inhibit E2-stimulated growth of mouse uterus after intraperitoneal and oral administration.
The ability to inhibit E2-stimulated growth of normal mouse uterus was used as a screening assay for biological activity of AFPep analogs. In general, inhibitory activity≧20% is considered to be biologically significant. Each analog's inhibitory effect on E2-stimulated growth was compared to AFPep (a positive control) and to PGVGQ (SEQ ID NO.: 44)(a negative control). PGVGQ (SEQ ID NO.: 44) (amino acids 478-482 of AFP) is a portion of the primary structure of AFP near to the anti-cancer active site of AFP and is comprised of amino acids (P, V, and G) that are important components of AFPep. A scrambled analog of AFPep was not used because some scrambled peptides retain low biological activity (data not shown). In Table 3, bold letters denote the sequences containing a putative Type I beta-turn, which was postulated to be necessary for antiestrogenic activity.

[2] = tested on: T47D human breast cancer cells; conditions: for concentration up to which E2-stimulated T47D growth was inhibited in a concentration dependent manner / activity maintained / dose response profile, inhibition of E2-stimulated T47D cell growth: FIG. 6; for inhibition of E2-stimulated T47D cell growth, in words: Table 3 discussion, 1 μM
Protocol: T47D cells were obtained from ATCC® (Rockville, Md.) and grown in culture according recommended protocols. Cells were treated with 1 nM estrogen or 100 nM TOVNO (SEQ ID NO.: 7)/1 nM estrogen. Control cells received 10% estrogen-free media. Cells were treated for seven days.
A number of AFPep analogs were assessed for in vitro anticancer activity.

[3] = tested on: MCF-7 human breast cancer cells; test: MCF-7 human tumor xenograft assay in SCID mice; type: in vivo, mouse; conditions: for change in mean tumor volume: FIG. 1
Protocol: The peptides of the invention were evaluated for their ability to inhibit tumor growth in a human tumor xenograft assay. Briefly, MCF-7 human breast cancer cells were obtained from ATCC® (Rockville, Md.) and were grown in DMEM supplemented with 5% FCS, 1% non-essential amino acids, 10 ng/ml insulin, 2 mM L-glutamine, 100 units/ml penicillin, and 100 μg/ml streptomycin. MCF-7 cells from culture were solidified into a fibrin clot. The tumor-containing clots were cut into pieces about 1.5 mm in diameter and implanted under the kidney capsule of severe combined immunodeficient (ICR-SCID) mice (Taconic Farms, Germantown, N.Y.) as described in Bennett et al. (Clin. Cancer Res. 1998; 4:2877-84).
Estrogen supplementation of mice was required for the growth of MCF-7 tumors. Supplementation was accomplished by s.c. implantation of a Silastic tubing capsule containing solid E2 (2 mm in length) inserted on the day of tumor implantation. Tumor size was evaluated during survival laparotomy using a dissecting microscope at the time of tumor implantation and at days 15 and 30 after tumor implantation.
The T47D human breast cancer cell line is responsive in culture, but it was a less reliable tool when grown as a xenograft tumor in immune deficient mice, having a take-rate of <60% in these mice. However, the MCF-7 human breast cancer cell line has a tumor take-rate of 100% in immune deficient mice and is completely dependent on E2 for growth in these mice (2). Consequently, MCF-7 xenografts were used as a model for ER+human breast cancer to evaluate, in vivo, the effectiveness of TOVNO (SEQ ID NO.: 7) and TOVNOGNEK (SEQ ID NO.: 34) as anticancer agents.

[4] = once a day 10 μg per mouse i.p., FIG. 7b
[5] = once a day 100 μg by oral gavage, FIG. 7a

TPVN
Inhibition ± S.E, % Immature mouse uterine growth Intraperitoneal [1]: 29 ± 1 % | Activity % ± SD (percent growth inhibition of uterus) [1]: 27%

CC(C)[C@H](NC(=O)[C@@H]1C[C@@H](O)CN1C(=O)[C@@H](N)[C@@H](C)O)C(=O)N[C@@H](CC(N)=O)C(=O)N1C[C@H](O)C[C@H]1C(=O)NCC(=O)N[C@@H](CC(N)=O)C(=O)N[C@@H](CCC(=O)O)C(=O)N[C@@H](CCCCN)C(N)=O [TOVNOGNEK] (H-T[Hyp]VN[Hyp]GNEK-NH2; N-terminus and C-terminus assumed)
concentration up to which E2-stimulated T47D growth was inhibited in a concentration dependent manner / activity maintained [2]: ≤ 10^−4 M | dose response profile, inhibition of E2-stimulated T47D cell growth [2]: maintained its activity with increasing concentrations | inhibition of E2-stimulated T47D cell growth, in words [2]: comparable to AFPep | growth of ER+ human MCF-7 breast cancer tumors [3, 4]: significantly inhibited | growth of ER+ human MCF-7 breast cancer tumors [3, 5]: significantly inhibited | dose-response profile, inhibition of E2-stimulated uterine growth [1]: maintained its inhibitory effect at high doses | antiestrogenic activity (inhibition of E2-stimulated uterine growth), in words [1]: significantly inhibited E2-stimulated uterine growth

EMTOV (EMT[Hyp]V; not fully specified (C-terminus)) [5-mer outside the pharmacophoric region]
Inhibition ± S.E, % Immature mouse uterine growth Intraperitoneal [1]: 1 ± 1% | antiestrogenic activity (inhibition of E2-stimulated uterine growth), in words [1]: little or no antiestrogenic activity

CC(C)[C@H](NC(=O)[C@@H]1C[C@@H](O)CN1C(=O)[C@@H](N)[C@@H](C)O)C(=O)N[C@@H](CC(N)=O)C(N)=O [TOVN] (H-T[Hyp]VN-NH2; N-terminus assumed)
inhibition of E2-stimulated T47D cell growth, in words [2]: very weak inhibitory activity | antiestrogenic activity (inhibition of E2-stimulated uterine growth), in words [1]: weak antiestrogenic activity

CC(C)[C@H](NC(=O)[C@@H]1C[C@@H](O)CN1)C(=O)N[C@@H](CC(N)=O)C(=O)N1C[C@H](O)C[C@H]1C(=O)NCC(N)=O [OVNOG] (H-[Hyp]VN[Hyp]G-NH2; N-terminus assumed)
antiestrogenic activity (inhibition of E2-stimulated uterine growth), in words [1]: weakly inhibited E2-stimulated uterine growth

MTOVNOG (MT[Hyp]VN[Hyp]G; not fully specified (C-terminus))
Inhibition ± S.E, % Immature mouse uterine growth Intraperitoneal [1]: 28 ± 2 % | antiestrogenic activity (inhibition of E2-stimulated uterine growth), in words [1]: significantly inhibited E2-stimulated uterine growth

CC(C)[C@H](NC(=O)[C@@H]1C[C@@H](O)CN1C(=O)[C@@H](NC(=O)[C@@H](N)CCCCN)[C@@H](C)O)C(=O)N[C@@H](CC(N)=O)C(=O)N1C[C@H](O)C[C@H]1C(=O)NCC(N)=O [KTOVNOG] (H-KT[Hyp]VN[Hyp]G-NH2; N-terminus and C-terminus assumed)
antiestrogenic activity (inhibition of E2-stimulated uterine growth), in words [1]: significantly inhibited E2-stimulated uterine growth

CC(C)[C@H](NC(=O)[C@@H]1C[C@@H](O)CN1C(=O)[C@@H](N)[C@@H](C)O)C(=O)N[C@@H](CC(N)=O)C(=O)N1C[C@H](O)C[C@H]1C(N)=O [TOVNO] (H-T[Hyp]VN[Hyp]-NH2; N-terminus assumed)
estrogen-stimulated T47D cell proliferation ([2]; 100 nM peptide/1 nM estrogen, seven days, FIG. 3): T47D cell proliferation was reduced | concentration up to which E2-stimulated T47D growth was inhibited in a concentration dependent manner / activity maintained [2]: up to 10^−7 M | dose response profile, inhibition of E2-stimulated T47D cell growth [2]: lost activity with increasing concentration thereafter | inhibition of E2-stimulated T47D cell growth, in words [2]: significantly inhibited | change in mean tumor volume ([3]; 100 μg/day p.o.): significantly decreased the increase in tumor volume | change in mean tumor volume ([3]; intraperitoneal 1 μg/day): effective in reducing the increase in mean tumor volume | change in mean tumor volume ([3]; intraperitoneal 10 μg/day): effective in reducing the increase in mean tumor volume | growth of ER+ human MCF-7 breast cancer tumors [3, 4]: significantly inhibited | growth of ER+ human MCF-7 breast cancer tumors [3, 5]: significantly inhibited | dose-response profile, inhibition of E2-stimulated uterine growth [1]: biphasic dose-response curve | dose up to which E2-stimulated uterine growth was inhibited in a dose-dependent manner ([1]; FIG. 5c): up to 1 μg/mouse | antiestrogenic activity (inhibition of E2-stimulated uterine growth), in words [1]: significantly inhibited E2-stimulated uterine growth

EKTPV [5-mer outside the pharmacophoric region]
Inhibition ± S.E, % Immature mouse uterine growth Intraperitoneal [1]: 0% | antiestrogenic activity (inhibition of E2-stimulated uterine growth), in words [1]: little or no antiestrogenic activity

KTPVNPG
Inhibition ± S.E, % Immature mouse uterine growth Intraperitoneal [1]: 34 ± 2 % | antiestrogenic activity (inhibition of E2-stimulated uterine growth), in words [1]: significantly inhibited E2-stimulated uterine growth

PVNP
Inhibition ± S.E, % Immature mouse uterine growth Intraperitoneal [1]: 6 ± 3% | Activity % ± SD (percent growth inhibition of uterus) [1]: 10%

CC(C)[C@H](NC(=O)[C@@H]1C[C@@H](O)CN1)C(=O)N[C@@H](CC(N)=O)C(=O)N1C[C@H](O)C[C@H]1C(N)=O [OVNO] (H-[Hyp]VN[Hyp]-NH2; N-terminus assumed)
inhibition of E2-stimulated T47D cell growth, in words [2]: lacked inhibitory activity | antiestrogenic activity (inhibition of E2-stimulated uterine growth), in words [1]: lacked antiestrogenic activity

CC(C)[C@H](NC(=O)[C@@H]1C[C@@H](O)CN1C(=O)[C@@H](NC(=O)[C@H](CCCCN)NC(=O)[C@@H](N)CCC(=O)O)[C@@H](C)O)C(N)=O [EKTOV] (H-EKT[Hyp]V-NH2; N-terminus assumed)
antiestrogenic activity (inhibition of E2-stimulated uterine growth), in words [1]: little or no antiestrogenic activity

CC(C)[C@@H]1NC(=O)[C@@H]2C[C@@H](O)CN2C(=O)[C@H]([C@@H](C)O)NC(=O)[C@H](CCCCN)NC(=O)[C@H](CCC(=O)O)NC(=O)[C@H](CC(N)=O)NC(=O)CNC(=O)[C@@H]2C[C@@H](O)CN2C(=O)[C@H](CC(N)=O)NC1=O [cyclo[EKTOVNOGN], reference compound] (cyclo(EKT[Hyp]VN[Hyp]GN))
concentration up to which E2-stimulated T47D growth was inhibited in a concentration dependent manner / activity maintained [2]: up to 10^−6 M | dose response profile, inhibition of E2-stimulated T47D cell growth [2]: lost activity at higher concentrations | Inhibition ± S.E, % T47D cell proliferation ([2]; peptide 1 μM, E2-stimulated): 51 ± 4 % | growth of ER+ human MCF-7 breast cancer tumors [3, 4]: significantly inhibited | growth of ER+ human MCF-7 breast cancer tumors [3, 5]: significantly inhibited | dose-response profile, inhibition of E2-stimulated uterine growth [1]: attenuated but did not completely eliminate this loss of activity with increasing doses

EMTPV [5-mer outside the pharmacophoric region]
Inhibition ± S.E, % Immature mouse uterine growth Intraperitoneal [1]: 5 ± 4% | antiestrogenic activity (inhibition of E2-stimulated uterine growth), in words [1]: little or no antiestrogenic activity

TPVNP
Inhibition ± S.E, % Immature mouse uterine growth Intraperitoneal [1]: 27 ± 1 % | Activity % ± SD (percent growth inhibition of uterus) [1]: 26%

CC(C)[C@H](NC(=O)[C@@H]1C[C@@H](O)CN1C(=O)[C@@H](NC(=O)[C@H](CCCCN)NC(=O)[C@@H](N)CCC(=O)O)[C@@H](C)O)C(=O)N[C@@H](CC(N)=O)C(=O)N1C[C@H](O)C[C@H]1C(=O)NCC(=O)N[C@@H](CC(N)=O)C(N)=O [EKTOVNOGN] (H-EKT[Hyp]VN[Hyp]GN-NH2; N-terminus and C-terminus assumed)
dose response profile, inhibition of E2-stimulated T47D cell growth [2]: biphasic dose response curve | dose-response profile, inhibition of E2-stimulated uterine growth [1]: biphasic dose-response curve | antiestrogenic activity (inhibition of E2-stimulated uterine growth), in words [1]: active at this dose
